Results published in patent US20220162192A1 (ESCAPE Bio, Inc., priority 2019, published 2022).
pIC50: −log10 of the molar value. Like-named read-outs stand apart in the source and are kept apart here.

Columns and labels:
[1] = target: T1, Recombinant wild type LRRK2 protein (Homo sapiens, UniProt Q5S007); experiment: LanthaScreen Kinase Activity Assay (TR-FRET), wild type LRRK2; format: biochemical; conditions: 25 μM ATP, 400 nM LRRKtide, 2.9 nM kinase, 60 min at room temperature, read-out: LRRK2 WT IC50
T1 construct: purchased Life Technologies PR8604B
Protocol: (§1) LRRK2 kinase activity was measured using a LanthaScreen™ Kinase Activity Assay from ThermoFisher Scientific. Recombinant wild type or G2019S-LRRK2 protein (Life Technologies, PR8604B or PV4881, respectively), was incubated with a fluorescein-labeled peptide substrate called LRRKtide that is based upon ezrin/radixin/moesin (ERM) (Life Technologies, PV4901) in the presence of ATP and serially diluted compound. After an incubation period of 1 hr, the phosphotransferase activity was stopped and a terbium-labelled anti-pERM antibody (Life Technologies, PV4899) was added to detect the phosphorylation of LRRKtide by measuring the time resolved-Forster resonant energy transfer (TR-FRET) signal from the terbium label on the antibody to the fluorescein tag on LRRKtide, expressed as the 520 nm/495 nm emission ratio. Compound-dependent inhibition of the TR-FRET signal was used to generate a concentration-response curve for IC50 determination.
(§2) The assay was carried out under the following protocol conditions: 1 mM compound in DMSO was serially diluted 1:3, 11 points in DMSO with a Biomek FX and 0.1 μL of the diluted compound was subsequently stamped into the assay plate (384-well format Lumitrac 200, Greiner, 781075) with an Echo Labcyte such that the final compound concentration in the assay was 10 μM to […]. Subsequently, 5 μL of 2× kinase solution (2.9 nM final concentration) was added to the assay plate in assay buffer composed of 50 mM Tris pH 8.5 (Sigma, T6791), 5 mM MgCl2 (Fluka, 63020), 1 mM EGTA (Sigma, E3889), 0.01% BRIJ-35 (Sigma, P1254) and 2 mM DTT. The reaction was started by addition of 2×ATP/LRRKtide solution in assay buffer such that the final concentration was 400 nM LRRKtide and 25 μM ATP. After 60 min incubation at room temperature, the reaction was stopped by addition of […] containing a final concentration of 2 nM anti-pERM antibody and 10 mM EDTA. After a 30 min incubation at RT, the TR-FRET signal was measured on a Wallac 2104 EnVision® multilabel reader at an excitation wavelength of 340 nm and reading emission at 520 nm and 495 nm. The ratio of the 520 nm and 495 nm emission was used to analyze the data.

[2] = target: T2, Recombinant G2019S-LRRK2 protein (Homo sapiens, UniProt Q5S007, G2019S); experiment: LanthaScreen Kinase Activity Assay (TR-FRET), G2019S-LRRK2; format: biochemical; conditions: class symbols; 25 μM ATP, 400 nM LRRKtide, 2.9 nM kinase, 60 min at room temperature
T2 construct: purchased Life Technologies PV4881
Protocol: as §1, §2

[3] = numeric bound instead of class symbol

T1 sequence (Q5S007 whole entry): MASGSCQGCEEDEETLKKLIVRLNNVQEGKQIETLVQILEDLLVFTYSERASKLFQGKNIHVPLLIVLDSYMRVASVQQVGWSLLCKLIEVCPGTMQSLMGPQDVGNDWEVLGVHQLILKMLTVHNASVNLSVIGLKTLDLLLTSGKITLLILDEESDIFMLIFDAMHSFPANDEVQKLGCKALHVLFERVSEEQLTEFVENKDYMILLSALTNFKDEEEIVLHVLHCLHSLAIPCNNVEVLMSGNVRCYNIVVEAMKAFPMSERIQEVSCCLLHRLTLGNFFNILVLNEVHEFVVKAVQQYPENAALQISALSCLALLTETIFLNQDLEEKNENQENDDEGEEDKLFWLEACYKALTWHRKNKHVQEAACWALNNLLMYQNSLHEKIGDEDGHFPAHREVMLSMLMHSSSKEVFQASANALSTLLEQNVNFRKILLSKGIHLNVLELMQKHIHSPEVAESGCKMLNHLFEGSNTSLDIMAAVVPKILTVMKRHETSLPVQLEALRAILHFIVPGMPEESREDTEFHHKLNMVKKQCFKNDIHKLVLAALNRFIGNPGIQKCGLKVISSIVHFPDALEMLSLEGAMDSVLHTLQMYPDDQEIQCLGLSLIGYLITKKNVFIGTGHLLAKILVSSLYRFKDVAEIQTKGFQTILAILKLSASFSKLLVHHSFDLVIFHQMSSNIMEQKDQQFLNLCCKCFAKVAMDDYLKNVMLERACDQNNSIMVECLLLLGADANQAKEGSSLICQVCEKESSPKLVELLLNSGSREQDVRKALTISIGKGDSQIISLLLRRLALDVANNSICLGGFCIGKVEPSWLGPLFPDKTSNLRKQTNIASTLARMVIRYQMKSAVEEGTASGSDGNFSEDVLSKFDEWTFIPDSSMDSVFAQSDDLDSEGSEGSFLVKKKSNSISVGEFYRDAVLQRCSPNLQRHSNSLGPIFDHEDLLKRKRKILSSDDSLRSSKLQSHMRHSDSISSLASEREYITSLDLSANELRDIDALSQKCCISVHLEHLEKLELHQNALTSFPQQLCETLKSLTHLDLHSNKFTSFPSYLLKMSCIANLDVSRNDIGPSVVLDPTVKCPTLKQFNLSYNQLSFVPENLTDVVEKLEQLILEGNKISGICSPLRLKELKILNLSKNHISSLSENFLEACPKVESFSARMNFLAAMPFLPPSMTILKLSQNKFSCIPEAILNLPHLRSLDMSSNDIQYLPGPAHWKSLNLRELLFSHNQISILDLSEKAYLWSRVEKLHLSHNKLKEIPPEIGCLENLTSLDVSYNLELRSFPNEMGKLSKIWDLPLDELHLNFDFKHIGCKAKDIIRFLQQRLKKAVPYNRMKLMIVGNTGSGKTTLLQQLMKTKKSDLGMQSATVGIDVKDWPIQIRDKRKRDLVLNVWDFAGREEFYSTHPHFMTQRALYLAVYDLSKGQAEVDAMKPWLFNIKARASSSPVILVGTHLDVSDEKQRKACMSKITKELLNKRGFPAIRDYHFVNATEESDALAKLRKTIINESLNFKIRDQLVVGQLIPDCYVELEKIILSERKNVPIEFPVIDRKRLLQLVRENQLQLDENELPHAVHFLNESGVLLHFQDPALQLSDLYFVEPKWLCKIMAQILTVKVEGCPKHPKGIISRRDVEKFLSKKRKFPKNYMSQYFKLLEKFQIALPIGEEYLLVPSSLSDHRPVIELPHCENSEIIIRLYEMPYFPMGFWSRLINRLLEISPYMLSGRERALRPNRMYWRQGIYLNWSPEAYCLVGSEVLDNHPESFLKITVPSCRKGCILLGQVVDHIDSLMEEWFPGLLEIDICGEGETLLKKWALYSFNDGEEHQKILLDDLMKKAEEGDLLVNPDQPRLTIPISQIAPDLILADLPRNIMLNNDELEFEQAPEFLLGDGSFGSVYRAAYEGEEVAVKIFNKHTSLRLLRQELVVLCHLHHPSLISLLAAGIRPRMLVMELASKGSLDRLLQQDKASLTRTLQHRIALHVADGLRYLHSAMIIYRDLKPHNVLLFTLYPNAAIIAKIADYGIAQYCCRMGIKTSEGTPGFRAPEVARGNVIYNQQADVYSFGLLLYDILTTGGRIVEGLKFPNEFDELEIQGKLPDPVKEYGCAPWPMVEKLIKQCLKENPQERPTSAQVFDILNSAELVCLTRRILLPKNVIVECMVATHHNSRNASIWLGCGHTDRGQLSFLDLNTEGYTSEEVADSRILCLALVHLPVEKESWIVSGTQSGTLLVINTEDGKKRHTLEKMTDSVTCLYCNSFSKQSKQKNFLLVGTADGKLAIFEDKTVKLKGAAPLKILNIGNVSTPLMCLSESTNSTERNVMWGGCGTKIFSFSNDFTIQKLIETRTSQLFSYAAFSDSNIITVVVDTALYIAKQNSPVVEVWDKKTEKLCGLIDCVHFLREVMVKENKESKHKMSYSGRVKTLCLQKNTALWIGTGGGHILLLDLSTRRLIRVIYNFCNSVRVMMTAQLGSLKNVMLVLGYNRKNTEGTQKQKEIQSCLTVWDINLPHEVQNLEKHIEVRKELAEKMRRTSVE
T2 sequence (Q5S007 whole entry G2019S): as the sequence (Q5S007 whole entry) above, with G2019S counted along it

Structure (SMILES) | pIC50 ([1]; class symbols) | pIC50 [2] | pIC50 [1, 3]
Cc1cc2cnnn2c(C)c1C(=O)Nc1ccc2[nH]nc(Br)c2c1 [Example 45, N-(3-Bromo-1H-indazol-5-yl)-5,7-dimethyl-[1,2,3]triazolo[1,5-a]pyridine-6-carboxamide] | 6.00 to 7.00 | ≥ 7.00 | 
Cc1n[nH]c2ccc(NC(=O)c3ccc4[nH]nnc4c3C#N)cc12 [Example 14, 4-Cyano-N-(3-methyl-1H-indazol-5-yl)-1H-benzo[d][1,2,3]triazole-5-carboxamide] |  | 5.00 to 6.00 | < 5.00
O=C(Nc1ccc2[nH]nc(-c3ccoc3)c2c1)c1ccc2nccn2c1 [Example 119, N-(3-(Furan-3-yl)-1H-indazol-5-yl)imidazo[1,2-a]pyridine-6-carboxamide] | 6.00 to 7.00 | ≥ 7.00 | 
Cc1c(C(=O)Nc2ccc3[nH]nc(-c4ccccc4)c3c2)c(Cl)cn2cnnc12 [Example 59, 6-Chloro-8-methyl-N-(3-phenyl-1H-indazol-5-yl)-[1,2,4]triazolo[4,3-a]pyridine-7-carboxamide] | ≥ 7.00 | ≥ 7.00 | 
Cn1ncc2cc(C(=O)Nc3ccc4[nH]nc(-c5ccoc5)c4c3)ccc21 [Example 133, N-(3-(Furan-3-yl)-1H-indazol-5-yl)-1-methyl-1H-indazole-5-carboxamide] | ≥ 7.00 | ≥ 7.00 | 
Cc1cc2[nH]ncc2cc1C(=O)Nc1ccc2[nH]nc(-c3ccccc3)c2c1 [Example 21, 6-Methyl-N-(3-phenyl-1H-indazol-5-yl)-1H-indazole-5-carboxamide] | ≥ 7.00 | ≥ 7.00 | 
O=C(Nc1ccc2[nH]nc(-c3ccoc3)c2c1)c1ccn2nccc2c1 [Example 117, N-(3-(Furan-3-yl)-1H-indazol-5-yl)pyrazolo[1,5-a]pyridine-5-carboxamide] | 6.00 to 7.00 | ≥ 7.00 | 
O=C(Nc1ccc2[nH]nc(-c3ccoc3)c2c1)c1nc2ccncc2s1 [Example 171, N-(3-(Furan-3-yl)-1H-indazol-5-yl)thiazolo[5,4-c]pyridine-2-carboxamide] | ≥ 7.00 | ≥ 7.00 | 
O=C(Nc1ccc2[nH]nc(-c3ccoc3)c2c1)c1ccc2ncsc2n1 [Example 122, N-(3-(Furan-3-yl)-1H-indazol-5-yl)thiazolo[5,4-b]pyridine-5-carboxamide] | ≥ 7.00 | ≥ 7.00 | 
Cc1cc2c(C)nnn2c(C)c1C(=O)Nc1ccc2[nH]nc(-c3ccccc3)c2c1 [Example 64, 3,5,7-Trimethyl-N-(3-phenyl-1H-indazol-5-yl)-[1,2,3]triazolo[1,5-a]pyridine-6-carboxamide] | 6.00 to 7.00 | ≥ 7.00 | 
Cc1cc2cn[nH]c2cc1C(=O)Nc1ccc2[nH]nc(-c3ccccc3)c2c1 [Example 23, 5-Methyl-N-(3-phenyl-1H-indazol-5-yl)-1H-indazole-6-carboxamide] | ≥ 7.00 | ≥ 7.00 | 
O=C(Nc1ccc2[nH]nc(-c3ccoc3)c2c1)c1ccc2cnsc2c1 [Example 156, N-(3-(Furan-3-yl)-1H-indazol-5-yl)benzo[d]isothiazole-6-carboxamide] | ≥ 7.00 | ≥ 7.00 | 
Cc1cc2nn[nH]c2cc1C(=O)Nc1ccc2[nH]nc(-c3ccncc3)c2c1 [Example 1] | 6.00 to 7.00 | ≥ 7.00 | 
Cc1cc2c(cnn2C)cc1C(=O)Nc1ccc2[nH]nc(-c3ccoc3)c2c1 [Example 158, N-(3-(Furan-3-yl)-1H-indazol-5-yl)-1,6-dimethyl-1H-indazole-5-carboxamide] | ≥ 7.00 | ≥ 7.00 | 
O=C(Nc1ccc2[nH]nc(-c3ccoc3)c2c1)c1ccn2nccc2n1 [Example 127, N-(3-(Furan-3-yl)-1H-indazol-5-yl)pyrazolo[1,5-a]pyrimidine-5-carboxamide] | 6.00 to 7.00 | ≥ 7.00 | 
O=C(Nc1ccc2[nH]nc(-c3ccoc3)c2c1)C1CCc2cncn2C1 (single isomer, unassigned) [Example 173a] | 6.00 to 7.00 | ≥ 7.00 | 
Cc1cc2[nH]nnc2c(C)c1C(=O)Nc1ccc2[nH]nc(C)c2c1 [Example 11, 4,6-Dimethyl-N-(3-methyl-1H-indazol-5-yl)-1H-benzo[d][1,2,3]triazole-5-carboxamide] | 5.00 to 6.00 | 6.00 to 7.00 | 

Results, then the compound that gave them:

pIC50 ([1]; class symbols) | pIC50 [2] | pIC50 [1, 3] | Structure (SMILES)
 | 6.00 to 7.00 | < 5.00 | Cn1ncc2c(F)c(C(=O)Nc3ccc4[nH]nc(-c5ccccc5C#N)c4c3)c(F)cc21 [Example 74, N-(3-(2-Cyanophenyl)-1H-indazol-5-yl)-4,6-difluoro-1-methyl-1H-indazole-5-carboxamide]
≥ 7.00 | ≥ 7.00 |  | CN(C)c1cccc(-c2n[nH]c3ccc(NC(=O)c4c(F)cc5c(cnn5C)c4F)cc23)c1 [Example 88, N-(3-(3-(Dimethylamino)phenyl)-1H-indazol-5-yl)-4,6-difluoro-1-methyl-1H-indazole-5-carboxamide]
≥ 7.00 | ≥ 7.00 |  | Cn1ncc2c(F)c(C(=O)Nc3ccc4[nH]nc(-c5cnn(C(F)F)c5)c4c3)c(F)cc21 [Example 86, N-(3-(1-(Difluoromethyl)-1H-pyrazol-4-yl)-1H-indazol-5-yl)-4,6-difluoro-1-methyl-1H-indazole-5-carboxamide]
6.00 to 7.00 | ≥ 7.00 |  | Cn1ncc2c(F)c(C(=O)Nc3ccc4[nH]nc(-c5ncco5)c4c3)c(F)cc21 [Example 138, 4,6-Difluoro-1-methyl-N-(3-(oxazol-2-yl)-1H-indazol-5-yl)-1H-indazole-5-carboxamide]
6.00 to 7.00 | ≥ 7.00 |  | COc1ncccc1-c1n[nH]c2ccc(NC(=O)c3c(F)cc4c(cnn4C)c3F)cc12 [Example 81, 4,6-Difluoro-N-(3-(2-methoxypyridin-3-yl)-1H-indazol-5-yl)-1-methyl-1H-indazole-5-carboxamide]
≥ 7.00 | ≥ 7.00 |  | Cn1ncc2c(F)c(C(=O)Nc3ccc4[nH]nc(-c5ccsc5)c4c3)c(F)cc21 [Example 100, 4,6-Difluoro-1-methyl-N-(3-(thiophen-3-yl)-1H-indazol-5-yl)-1H-indazole-5-carboxamide]
≥ 7.00 | ≥ 7.00 |  | Cc1nn(C)cc1-c1n[nH]c2ccc(NC(=O)c3c(F)cc4c(cnn4C)c3F)cc12 [Example 80, N-(3-(1,3-Dimethyl-1H-pyrazol-4-yl)-1H-indazol-5-yl)-4,6-difluoro-1-methyl-1H-indazole-5-carboxamide]
6.00 to 7.00 | ≥ 7.00 |  | Cn1ncc2c(F)c(C(=O)Nc3ccc4[nH]nc(N5Cc6ccccc6C5)c4c3)c(F)cc21 [Example 109, 4,6-Difluoro-N-(3-(isoindolin-2-yl)-1H-indazol-5-yl)-1-methyl-1H-indazole-5-carboxamide]
5.00 to 6.00 | 6.00 to 7.00 |  | Cn1ncc2c(F)c(C(=O)Nc3ccc4[nH]nc(-c5ccccc5O)c4c3)c(F)cc21 [Example 75, 4,6-Difluoro-N-(3-(2-hydroxyphenyl)-1H-indazol-5-yl)-1-methyl-1H-indazole-5-carboxamide]
≥ 7.00 | ≥ 7.00 |  | Cc1ncc(-c2n[nH]c3ccc(NC(=O)c4c(F)cc5c(cnn5C)c4F)cc23)s1 [Example 95, 4,6-Difluoro-1-methyl-N-(3-(2-methylthiazol-5-yl)-1H-indazol-5-yl)-1H-indazole-5-carboxamide]
≥ 7.00 | ≥ 7.00 |  | Cn1ncc2c(F)c(C(=O)Nc3cc4c(-c5ccoc5)n[nH]c4cc3F)c(F)cc21 [Example 144, 4,6-Difluoro-N-(6-fluoro-3-(furan-3-yl)-1H-indazol-5-yl)-1-methyl-1H-indazole-5-carboxamide]
≥ 7.00 | ≥ 7.00 |  | Cn1ncc2c(F)c(C(=O)Nc3ccc4[nH]nc(-c5cncc(N6CCOCC6)c5)c4c3)c(F)cc21 [Example 98, 4,6-Difluoro-1-methyl-N-(3-(5-morpholinopyridin-3-yl)-1H-indazol-5-yl)-1H-indazole-5-carboxamide]
5.00 to 6.00 | 6.00 to 7.00 |  | Cn1ncc2c(F)c(C(=O)Nc3ccc4[nH]nc(N5CCC5)c4c3)c(F)cc21 [Example 139, N-(3-(Azetidin-1-yl)-1H-indazol-5-yl)-4,6-difluoro-1-methyl-1H-indazole-5-carboxamide]
6.00 to 7.00 | ≥ 7.00 |  | Cc1cc(-c2n[nH]c3ccc(NC(=O)c4c(F)cc5c(cnn5C)c4F)cc23)c(C)o1 [Example 101, N-(3-(2,5-Dimethylfuran-3-yl)-1H-indazol-5-yl)-4,6-difluoro-1-methyl-1H-indazole-5-carboxamide]
